Values quoted from earlier work in patent publication US8512311B2, “Augmentation of intraluminal microvessel formation to facilitate guide wire crossing in chronic total occlusions” (priority 2004, dated 2013).

System: venous thrombi
Conditions: injection into venous thrombi, rat model, compared to controls

## vascular endothelial growth factor [VEGF protein]
  increase in thrombus recanalization: two-fold
